The values below come from paper PMC6537893 (Biochemistry, 2019).

This assay deals with T1, GoxA (Pseudoalteromonas luteoviolacea, UniProt A0A161XU12).
T1 sequence (A0A161XU12 1-816): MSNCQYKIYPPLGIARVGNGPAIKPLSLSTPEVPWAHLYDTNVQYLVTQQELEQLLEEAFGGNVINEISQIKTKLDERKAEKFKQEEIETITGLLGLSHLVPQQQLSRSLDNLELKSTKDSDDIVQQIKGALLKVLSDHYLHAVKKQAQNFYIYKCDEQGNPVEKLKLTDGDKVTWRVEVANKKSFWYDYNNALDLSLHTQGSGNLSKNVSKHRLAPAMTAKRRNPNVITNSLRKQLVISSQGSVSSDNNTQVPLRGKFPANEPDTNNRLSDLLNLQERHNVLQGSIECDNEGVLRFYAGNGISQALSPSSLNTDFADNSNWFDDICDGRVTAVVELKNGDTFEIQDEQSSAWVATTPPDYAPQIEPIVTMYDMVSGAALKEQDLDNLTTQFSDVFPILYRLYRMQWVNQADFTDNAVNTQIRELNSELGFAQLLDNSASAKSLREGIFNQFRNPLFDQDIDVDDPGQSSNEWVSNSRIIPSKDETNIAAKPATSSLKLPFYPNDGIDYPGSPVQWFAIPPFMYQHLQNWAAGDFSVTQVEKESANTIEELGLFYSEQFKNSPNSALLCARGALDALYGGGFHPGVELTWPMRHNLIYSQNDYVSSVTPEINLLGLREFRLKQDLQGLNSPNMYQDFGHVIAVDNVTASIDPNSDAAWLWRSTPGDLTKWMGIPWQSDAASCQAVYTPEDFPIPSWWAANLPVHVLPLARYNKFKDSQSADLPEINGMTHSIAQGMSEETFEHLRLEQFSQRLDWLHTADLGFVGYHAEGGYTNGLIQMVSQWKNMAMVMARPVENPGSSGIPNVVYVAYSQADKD
Put plainly: anaerobic absorbance titration at […] nm, fit to allosteric binding equation.

As a reminder, the Kd is a measure of binding affinity in units of concentration.

With `NCC(=O)O` [glycine], the Kd is 103 ± 3 µM.
